Data from patent US20120101099A1, “HISTONE DEACETYLASE INHIBITORS” (ANTHEM BIOSCIENCES PRIVATE LIMITED, priority 2009, published 2012).
Structures can show the parent of a compound that is named as a salt.

Assays:
[1] = test system: human HDAC (Hela cells nuclear extract); assay: HDAC activity screening, Hela nuclear extract, Boc-Lys(Ac)-AMC substrate; type: biochemical; details: Hela nuclear extract; for IC50: read-out: IC50 (50% HDAC inhibitory concentration), Table 2; for HDAC % Inhibition (1 μM): 1 μM compound; for HDAC % Inhibition (10 μM): 10 μM compound
Experimental: To study the human HDAC inhibition the in-house 96 well plate assay have been established using fluorescent substrate (Boc-Lys (Ac)-AMC Substrate). Hela cells nuclear extract have been used as enzyme source.
Assay was performed in 96-well black microplate and total volume of the assay was 100 μL. Hela nuclear extract was diluted HDAC assay buffer (final concentration of 3.0 μg/mL). Enzyme mixture was made of 10 μL of diluted enzyme and 30 μL of HDAC buffer. 40 μl of enzyme mixture followed by 10 μL of test compound (final concentration from 0.01 to 10 μM) or vehicle (control) was added to each well. The plate was pre-incubated at 37° C. for 10 minutes. The HDAC reaction was started by adding 50 μl of HDAC substrate Boc-Lys (Ac)-AMC (Anaspec, Inc Fremont, Calif., USA). The plate was incubated at 37° C. for 45 minutes. The reaction was stopped by adding 50 μL of Trypsin stop solution and plate further incubated at 37° C. for 15 minutes. Measuring the fluorescence at excitation wavelength of 360 nm and emission wavelength of 460 nm monitored the release of AMC. Buffer alone and substrate alone served as blank.

[2] = Oral bioavailability and pharmacokinetics studies; type: in vivo, male Balb/c mice
Experimental: The studies were performed to determine the oral bioavailability and pharmacokinetics of test compounds in male Balb/c mice. Study was performed after obtaining the Institutional Animal Ethics Committee (IAEC) permission. Mice aged 5 to 6 weeks weighing around 25 to 30 g were used for this study. The animals were fasted overnight with free access to water. Animals were administered test compounds by oral route at a 50 mg/kg body weight (formulation: 0.5% methylcellulose in water and 0.1% tween 80. Dose volume 10 ml/kg b.w.) or intravenous route at a dose 10 mg/kg b.w. […] (formulation: 0.9% saline. Dose volume 10 ml/kg b.w.) Blood samples were collected at various time points during the next 24 hours post dose. The blood samples were centrifuged at 3000 g for 5 minutes at 4° C. and the corresponding plasma samples were collected in clean pre-labeled tubes. Then, each sample was subjected to a suitable extraction method and analysed by LC-MS/MS (API 3200 LC-MS/MS system). Data was analyzed using WinNonlin version 5.2 (Pharsight).

[3] = test system: A549; assay: Cell proliferation assay (MTT); type: cell-based; details: Homo sapiens, A549; Table 1; MTT, 48 hours; read-out: Cell growth inhibition (GI50 in μM) A549
Experimental: (§1) Cells were seeded in a 96-well cell culture plates at a concentration of 10,000 cells per well and incubated at 37° C. in CO2 incubator.
(§2) Twenty-four hours later cells were treated with different concentrations (100, 10, 1, 0.1, and 0.01 μM) of compound dissolved in DMSO and incubated for 48 hours. For To measurement, 24 hours after seeding the cells, 20 μL of 3-(4.5-dimethyl-2- thiazolyl)-2,5-diphenyl-2H-tetrazolium (MTT) solution per well was added to the T0 plate and incubated for 3 hours at 37° C. in a CO2 incubator.
(§3) The plate containing cells and test compounds was treated similarly after 48 hours of incubation. After 3 hours of MTT addition, well contents were aspirated carefully followed by addition of 100 μL DMSO per well. Plates were agitated to ensure dissolution of the formazan crystals in DMSO and absorbance was read at 570 nm (A570). […] From the percentage growths a dose response curve was generated and GI50 values were interpolated from the growth curves.

[4] = test system: PC-3; assay: Cell proliferation assay (MTT); type: cell-based; details: Homo sapiens, PC-3; Table 1; MTT, 48 hours; read-out: Cell growth inhibition (GI50 in μM) PC-3
Experimental: as §1, §2, §3

[5] = test system: PA-1; assay: Cell proliferation assay (MTT); type: cell-based; details: Homo sapiens, Table 1, MTT, 48 hours, read-out: Cell growth inhibition (GI50 in μM) PA-1
Experimental: as §1, §2, §3

[6] = plasma, oral 50 mg/kg, male Balb/c mouse

Row | Compound | IC50 [1] [nM] | times higher AUC ([2]; compared with SAHA, oral) [times] | times longer terminal half life ([2]; compared with SAHA, oral) [times] | GI50 [3] [µM] | GI50 [4] [µM] | bioavailability ([2]; plasma, oral 50 mg/kg vs intravenous, male Balb/c mouse) [%] | AUC(0-t) [2, 6] [ng·h/mL] | Cmax [2, 6] [ng/mL] | Tmax [2, 6] [min] | half-life [2, 6] [min] | HDAC % Inhibition (1 μM) [1] [%] | HDAC % Inhibition (10 μM) [1] [%] | GI50 [5] [µM]
1 | CCN(CC)CCc1ccc(-c2cn(Cc3ccc(C(=O)NO)cc3)nn2)cc1 [Example 11, 4-{4-[4-(2-Diethylamino-ethyl)-phenyl]-[1,2,3]triazol-1-ylmethyl}-N-hydroxy-benzamide] | 18.6 | 9 | 2 | – | – | – | – | – | – | – | – | – | –
2 | O=C(/C=C/c1ccc(Cn2cc(-c3ccc(CN4CCOCC4)cc3)nn2)cc1)NO [Example 20] | 19 | – | – | 2.9 ± 1.8 | 12.7 ± 5.6 | – | – | – | – | – | 96 | 100 | 0.16 ± 0.02
3 | CN(C)Cc1ccc(-c2cn(Cc3ccc(C(=O)NO)cc3)nn2)cc1 [Example 10, 4-[4-(4-Dimethylaminomethyl-phenyl)-[1,2,3]triazol-1-ylmethyl]-N-hydroxy-benzamide] | 25 | – | – | 3.2 ± 1.4 | 18.5 ± 10.2 | – | – | – | – | – | 96 | 100 | 0.1 ± 0.02
4 | CCN(CC)Cc1ccc(-c2cn(Cc3ccc(C(=O)NO)cc3)nn2)c(F)c1 [Example 13, 4-[4-(4-Diethylaminomethyl-2-fluoro-phenyl)-[1,2,3]triazol-1-ylmethyl]-N-hydroxy-benzamide] | 19.1 | – | – | – | – | 68 ± 6 | 3340 | 3360 | 4.8 | 120 | – | – | –

The next lines start with results.

Row | IC50 [1] [nM] | times higher AUC ([2]; compared with SAHA, oral) [times] | times longer terminal half life ([2]; compared with SAHA, oral) [times] | GI50 [3] [µM] | GI50 [4] [µM] | bioavailability ([2]; plasma, oral 50 mg/kg vs intravenous, male Balb/c mouse) [%] | AUC(0-t) [2, 6] [ng·h/mL] | Cmax [2, 6] [ng/mL] | Tmax [2, 6] [min] | half-life [2, 6] [min] | Compound | HDAC % Inhibition (1 μM) [1] [%] | HDAC % Inhibition (10 μM) [1] [%] | GI50 [5] [µM]
5 | 1 | – | – | 0.9 ± 0.3 | 9.4 ± 6.2 | – | – | – | – | – | O=C(/C=C/c1cccc(Cn2cc(-c3ccc(CN4CCCC4)cc3)nn2)c1)NO [Example 26, N-Hydroxy-3-{3-[4-(4-pyrrolidin-1-ylmethyl-phenyl)-[1,2,3]triazol-1-ylmethyl]-phenyl}-acrylamide hydrochloride] | 99 | 99 | 0.03
6 | 1 | – | – | 0.4 ± 0.2 | 4.5 ± 5.7 | – | – | – | – | – | CN(C)Cc1ccc(-c2cn(Cc3cccc(/C=C/C(=O)NO)c3)nn2)cc1 [Example 27, 3-{3-[4-(4-Dimethylaminomethyl-phenyl)-[1,2,3]triazol-1-ylmethyl]-phenyl}-N-hydroxy-acrylamide hydrochloride] | 99 | 99 | 0.02
